Measured values published in paper PMC9516332 (Frontiers in Oncology, 2022).
Where two headings read alike, the source gives them in different places.

System: 134 cancer cell lines
Assay: Cell viability assay (ATPlite, 72 hours), IC50 on cancer cell line panel

IC50 (HEC-6, read-out: IC50 in cell proliferation assay, HEC-6 cell line (EGFR p.A289V)): 7.66 µM | IC50 (Homo sapiens, 769-P, read-out: IC50 in cell proliferation assay, cell line 769-P): 14.3 µM | IC50 (Homo sapiens, 786-0, read-out: IC50 in cell proliferation assay, cell line 786-O): > 31.6 µM | IC50 (Homo sapiens, A 172, read-out: IC50 in cell proliferation assay, cell line A-172): 19.6 µM | IC50 (Homo sapiens, A204, read-out: IC50 in cell proliferation assay, cell line A-204): 0.247 µM | IC50 (Homo sapiens, A498, read-out: IC50 in cell proliferation assay, cell line A-498): 14.4 µM | IC50 (Homo sapiens, A549, read-out: IC50 in cell proliferation assay, cell line A-549): 9.89 µM | IC50 (Homo sapiens, A704, read-out: IC50 in cell proliferation assay, cell line A-704): 27 µM | IC50 (Homo sapiens, A-375, read-out: IC50 in cell proliferation assay, cell line A-375 (BRAF p.V600E)): 14.9 µM | IC50 (Homo sapiens, A-427, read-out: IC50 in cell proliferation assay, cell line A-427): 0.074 µM | IC50 (Homo sapiens, ACHN, read-out: IC50 in cell proliferation assay, cell line ACHN): 9.68 µM | IC50 (Homo sapiens, AN3-CA, read-out: IC50 in cell proliferation assay, cell line AN3-CA (FGFR2 p.N549K)): 0.697 µM | IC50 (Homo sapiens, ASPC1, read-out: IC50 in cell proliferation assay, cell line AsPC-1): 8.97 µM | IC50 (Homo sapiens, AU565, read-out: IC50 in cell proliferation assay, cell line AU565 (ERBB2 amplification)): 1.56 µM | IC50 (Homo sapiens, BT-20, read-out: IC50 in cell proliferation assay, cell line BT-20): 3.55 µM | IC50 (Homo sapiens, BT-474, read-out: IC50 in cell proliferation assay, cell line BT-474 (ERBB2 amplification)): 3.2 µM | IC50 (Homo sapiens, BT-549, read-out: IC50 in cell proliferation assay, cell line BT-549): 16.6 µM | IC50 (Homo sapiens, BXPC-3, read-out: IC50 in cell proliferation assay, cell line BxPC-3): 5.88 µM | IC50 (Homo sapiens, C-33-A, read-out: IC50 in cell proliferation assay, cell line C-33 A): 25.1 µM | IC50 (Homo sapiens, CAL-27, read-out: IC50 in cell proliferation assay, cell line CAL-27): 2.31 µM | IC50 (Homo sapiens, CCF-STTG1, read-out: IC50 in cell proliferation assay, cell line CCF-STTG1): > 31.6 µM | IC50 (Homo sapiens, CCRF-CEM, read-out: IC50 in cell proliferation assay, cell line CCRF-CEM): 4.28 µM | IC50 (Homo sapiens, COLO 205, read-out: IC50 in cell proliferation assay, cell line COLO 205 (BRAF p.V600E)): 14.1 µM | IC50 (Homo sapiens, COLO-829, read-out: IC50 in cell proliferation assay, cell line COLO 829 (BRAF p.V600E)): > 31.6 µM | IC50 (Homo sapiens, DLD-1, read-out: IC50 in cell proliferation assay, cell line DLD-1): 0.676 µM | IC50 (Homo sapiens, DU-4475, read-out: IC50 in cell proliferation assay, cell line DU4475 (BRAF p.V600E)): 0.628 µM | IC50 (Homo sapiens, Daoy, read-out: IC50 in cell proliferation assay, cell line Daoy): 9.36 µM | IC50 (Homo sapiens, DoTc2-4510, read-out: IC50 in cell proliferation assay, cell line DoTc2 4510): 1.3 µM | IC50 (Homo sapiens, EOL1, read-out: IC50 in cell proliferation assay, cell line EoL-1 (FIP1L1-PDGFRA)): 0.335 µM | IC50 (Homo sapiens, FaDu, read-out: IC50 in cell proliferation assay, cell line FaDu): 1.71 µM | IC50 (Homo sapiens, G-361, read-out: IC50 in cell proliferation assay, cell line G-361 (BRAF p.V600E)): 16.6 µM | IC50 (Homo sapiens, HCC827, read-out: IC50 in cell proliferation assay, cell line HCC827 (EGFR exon19del)): 5.4 µM | IC50 (Homo sapiens, HCC4006, read-out: IC50 in cell proliferation assay, cell line HCC4006 (EGFR exon19del)): 4.56 µM | IC50 (Homo sapiens, HCT-15, read-out: IC50 in cell proliferation assay, cell line HCT 15): 0.838 µM | IC50 (Homo sapiens, HCT-116, read-out: IC50 in cell proliferation assay, cell line HCT 116): 6.31 µM | IC50 (Homo sapiens, HEC-1, read-out: IC50 in cell proliferation assay, HEC-1 cell line): 5.84 µM | IC50 (Homo sapiens, HEC-1B, read-out: IC50 in cell proliferation assay, HEC-1-B cell line (EGFR p.A864V)): 0.943 µM | IC50 (Homo sapiens, HL-60, read-out: IC50 in cell proliferation assay, HL-60 cell line): 1.69 µM | IC50 (Homo sapiens, HT, read-out: IC50 in cell proliferation assay, HT cell line): 14.3 µM | IC50 (Homo sapiens, HT-1080, read-out: IC50 in cell proliferation assay, HT-1080 cell line): 0.314 µM | IC50 (Homo sapiens, Hs746T, read-out: IC50 in cell proliferation assay, Hs 746.T cell line (MET exon14skip + amplification)): 5.75 µM | IC50 (Homo sapiens, Hs-578T, read-out: IC50 in cell proliferation assay, Hs 578T cell line): 8.51 µM | IC50 (Homo sapiens, HuTu80, read-out: IC50 in cell proliferation assay, HuTu 80 cell line): 1.09 µM | IC50 (Homo sapiens, J82, read-out: IC50 in cell proliferation assay, J82 cell line): > 31.6 µM | IC50 (Homo sapiens, Jurkat E6.1, read-out: IC50 in cell proliferation assay, Jurkat E6.1 cell line): 12.9 µM | IC50 (Homo sapiens, K562, read-out: IC50 in cell proliferation assay, K-562 cell line): > 31.6 µM | IC50 (Homo sapiens, KATO III, read-out: IC50 in cell proliferation assay, KATO III cell line (FGFR2 amplification)): 2.79 µM | IC50 (Homo sapiens, KG-1, read-out: IC50 in cell proliferation assay, KG-1 cell line (FGFR1OP2-FGFR1)): 27.7 µM | IC50 (Homo sapiens, KLE, read-out: IC50 in cell proliferation assay, KLE cell line): 5.79 µM | IC50 (Homo sapiens, KMS-11, read-out: IC50 in cell proliferation assay, KMS-11 cell line (FGFR3 p.Y373C)): 1.53 µM | IC50 (Homo sapiens, KU812, read-out: IC50 in cell proliferation assay, Ku812 cell line): 0.075 µM | IC50 (Homo sapiens, Kasumi 1, read-out: IC50 in cell proliferation assay, Kasumi-1 cell line (KIT p.N822K)): 1.9 µM | IC50 (Homo sapiens, LC-2-ad, read-out: IC50 in cell proliferation assay, LC-2/ad cell line (CCDC6-RET)): 4.5 µM | IC50 (Homo sapiens, LNCaP-Clone-FGC, read-out: IC50 in cell proliferation assay, LNCaP clone FGC cell line): > 31.6 µM | IC50 (Homo sapiens, LS174T, read-out: IC50 in cell proliferation assay, LS174T cell line): 1.9 µM | IC50 (Homo sapiens, LS-411N, read-out: IC50 in cell proliferation assay, LS411N cell line (BRAF p.V600E)): 17.4 µM | IC50 (Homo sapiens, LoVo, read-out: IC50 in cell proliferation assay, LoVo cell line): 20.5 µM | IC50 (Homo sapiens, MCF7, read-out: IC50 in cell proliferation assay, MCF-7 cell line): 2.79 µM | IC50 (Homo sapiens, MDA-MB-231, read-out: IC50 in cell proliferation assay, MDA-MB-231 cell line): > 31.6 µM | IC50 (Homo sapiens, MDA-MB-453, read-out: IC50 in cell proliferation assay, MDA-MB-453 cell line): 6.03 µM | IC50 (Homo sapiens, MDA-MB-468, read-out: IC50 in cell proliferation assay, MDA-MB-468 cell line): 9.8 µM | IC50 (Homo sapiens, MG-63, read-out: IC50 in cell proliferation assay, MG-63 cell line): 3.87 µM | IC50 (Homo sapiens, MIA PaCa-2, read-out: IC50 in cell proliferation assay, MIA PaCa-2 cell line): 10.7 µM | IC50 (Homo sapiens, MKN-45, read-out: IC50 in cell proliferation assay, MKN45 cell line (MET amplification)): 1.23 µM | IC50 (Homo sapiens, MOLM-13, read-out: IC50 in cell proliferation assay, MOLM-13 cell line (FLT3 ITD)): 3.48 µM | IC50 (Homo sapiens, MOLT-4, read-out: IC50 in cell proliferation assay, MOLT-4 cell line): 0.701 µM | IC50 (Homo sapiens, MV4-11, read-out: IC50 in cell proliferation assay, MV4-11 cell line (FLT3 ITD)): 10.5 µM | IC50 (Homo sapiens, MeWo, read-out: IC50 in cell proliferation assay, MeWo cell line): > 31.6 µM | IC50 (Homo sapiens, NCCIT, read-out: IC50 in cell proliferation assay, NCC-IT cell line): 8.35 µM
Compound: Cc1nc(NC(=O)N2CCC[C@H]2C(N)=O)sc1-c1ccnc(C(C)(C)C(F)(F)F)c1 [alpelisib]
